Test results from patent US8614333B2, “Acenaphtho heterocyclic compound and application thereof” (Dalian University of Technology, priority 2010, dated 2013).

How the values were obtained:
Bcl-2 protein = Bcl-2 protein (Homo sapiens, UniProt P10415); experiment: ELISA assay, competitive binding to Bcl-2 protein (biotin-Bim/streptavidin plate); settings: method calculates average IC50, read-out: Bcl-2 binding constants
Experimental: (§1) The present inventors used fluorescence polarization assay to detect the bonding force between the protein and the compounds in a previous study (PCT/CN2010/075521). […] ELISA assay was used to detect the bonding force between the compounds and the protein in this application.
(§2) Biotinylated Bim peptide was diluted to 0.09 μg/mL in SuperBlock blocking buffer in PBS and incubated for 1.5 h in 96-well microtiter plates already coated with streptavidin to allow the formation of the complex between Biotin-Bim and streptavidin. All incubations were performed at room temperature unless otherwise noted. Each inhibitor was first dissolved in pure DMSO to obtain a 10 mM stock solution. For each tested inhibitor, different concentrations of the inhibitor were incubated with 20 nM His-tagged Mcl-1 protein in PBS for 1 h with a final DMSO concentration of 4%. The plates were washed three times with PBS containing 0.05% Tween-20. The inhibitor and protein mixture (100 μL) were transferred to the plate containing the biotin-Bim/streptavidin complex and incubated for 2 h. The plate was then washed as before and mouse anti-His antibody that conjugated with horseradish peroxidase was added into the wells and incubated for 1 h. The plate was then washed with PBS containing 0.05% Tween-20. Finally, TMB was added to each well; the enzymatic reaction was stopped after 30 min by addition of H2SO4 (100 μL, 2M). Absorbances were measured with a TECAN GENios (Swiss, TECAN) microplate reader using a wavelength of 450 nm. Three independent experiments were performed with each inhibitor to calculate average IC50 value and standard deviation (SD).
(§3) The BH3 analogous degrees of other 11 compounds were detected by using the experimental method as described above. The protein binding constant (binding constant in table 1) between them and Bcl-2 and Mcl-1 proteins were also on nM grade.

His-tagged Mcl-1 protein = His-tagged Mcl-1 protein (Homo sapiens, UniProt Q07820); experiment: ELISA assay, competitive binding to Mcl-1 protein (biotin-Bim/streptavidin plate); settings: 20 nM His-tagged Mcl-1, method calculates average IC50, read-out: Mcl-1 binding constants
His-tagged Mcl-1 protein, sequence (Q07820 whole entry): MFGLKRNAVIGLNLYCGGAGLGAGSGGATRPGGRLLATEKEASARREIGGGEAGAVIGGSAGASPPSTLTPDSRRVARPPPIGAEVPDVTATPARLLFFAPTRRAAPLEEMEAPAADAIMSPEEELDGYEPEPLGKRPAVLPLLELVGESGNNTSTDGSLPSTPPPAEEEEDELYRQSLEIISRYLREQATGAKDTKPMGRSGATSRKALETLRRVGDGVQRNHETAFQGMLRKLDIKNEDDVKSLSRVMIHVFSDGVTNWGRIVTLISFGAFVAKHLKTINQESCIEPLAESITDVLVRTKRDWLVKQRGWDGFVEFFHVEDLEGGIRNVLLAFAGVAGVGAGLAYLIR
Experimental: as §1, §2, §3

[1] = molecular target: T1, interaction between Bcl-2 and Bax (Homo sapiens, UniProt P10415); experiment: Intracellular FRET, Bcl-2-CFP/Bax-YFP in Hela cells; assay type: cell-based; settings: for Time (time period after which the interaction between Bcl-2 and Bax was interfered): at the concentration given
T1 construct: expressed in transfected cells; host or cells: Hela cells
T1 sequence (P10415 whole entry): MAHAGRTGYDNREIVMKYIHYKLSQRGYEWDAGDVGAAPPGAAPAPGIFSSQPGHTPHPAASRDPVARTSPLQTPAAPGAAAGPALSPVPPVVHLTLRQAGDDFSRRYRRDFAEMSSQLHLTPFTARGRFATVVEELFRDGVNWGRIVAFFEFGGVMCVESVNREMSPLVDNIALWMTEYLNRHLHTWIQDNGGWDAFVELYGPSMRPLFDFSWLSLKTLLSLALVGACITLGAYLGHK
Experimental: 2 μg of Bcl-2-CFP and Bax-YFP plasmids were transfected separately or simultaneously into Hela cells by using calcium phosphate coprecipitation method, 24 hours later, the cells were inoculated in a 6-well plate (2×10^5 cells/well), and the compound 1 to be detected dissolved in DMSO was added there into until the final concentration (2, 5, 10 and 15 μM) was achieved. 24 hours later (please refer to FIG. 5); the cells were washed with PBS for three times. The fluorescence value was detected by GENIOS fluorescence enzyme-labelled meter (TECAN, Swiss). In time-dependent experiment, the transfected cells were inoculated in a 6-well plate, after that, 40 μM of the compound was added thereinto. 3, 6 and 24 hours later (FIG. 6), the fluorescence intensities were detected by plate reader. As for the cell group in which only Bcl-2-CFP plasmid was transfected, the values at 475 nm emission wave length and 433 nm excitation wave length were recorded. As for the cell group in which only Bax-YFP plasmid was transfected, the values at 527 nm emission wave length and 505 nm excitation wave length were recorded. As for the cell group in which Bcl-2-CFP and Bax-YFP plasmids were co-transfected, the values at 527 nm and 475 emission wave lengths and 433 nm excitation wave length were recorded. The ratio of fluorescence intensity at 527 nm and 475 nm emission wave lengths was FRET. The FRET for the control group in which the plasmid was solely transfected was set as 1.0. […] In the cotransfected cells, the FRET increased up to 2.0 due to the interaction of Bcl-2 protein and Bax protein, and that the interference to the interaction between the two proteins increased and FRET decreased with the increase of the drug concentration and time. The cellular vitality was detected by MTT method. When the concentration of the compound reached 1 μM, the interaction between Bcl-2 and Bax can be interfered after 2 hours, and the results appeared concentration-time dependent trend.
Wherein the concentration and time meant that the detected compound interfered with the interaction between Bcl-2 and Bax at the concentration for the time period.

[2] = test system: BAX shift towards the chondriosome; experiment: Co-localization between Bax protein and chondriosome, Bax-YFP in MCF-7 cells; assay type: cell-based; settings: for Doses (concentration at which the compound drove the BAX to shift towards the chondriosome): Bax-YFP/Mito Tracker Red; for Time (time period after which BAX shifted towards the chondriosome): at the concentration given
Experimental: 5 μg of Bax-YFP plasmid was transfected into MCF-7 cells by using calcium phosphate coprecipitation method, 24 hours later, the cells were inoculated in a 6-well plate (0.2×10^6 cells/well), and 10 μM of the compound 1 to be detected was added thereinto. 6 hours later, the cells were washed with PBS and hatched away from light with 50 nM Mito Tracker Red CMXRos (chondriosome specific probes; red) for 10 minutes. Then the cells were washed with PBS for three times, and the fluorescent image was scanned with Radiance2000 laser confocal microscopy (Bio-Rad, USA). Meanwhile, dual channel scanning was carried out, one channel was used to scan the green fluorescence of Bax-YFP, and the other channel was used to scan the red fluorescence of the CMXRos probe for indicating the chondriosome. […] When the Bax protein was localized on the chondriosome, the green and red fluorescence was superimposed into orange, as shown in FIG. 7.
Other 24 compounds were detected by the same experimental method as described above. […] Wherein the concentration and time meant that the detected compound simulated the BH3-only protein and driven the BAX to shift towards the chondriosome at the concentration for the time period.

MCF-7 cells = experiment: Cytotoxicity by MTT, cells without plasmid transfection; assay type: cell-based; settings: Homo sapiens, MCF7; MCF-7, MTT, 48 hours; read-out: IC50 value in untransfected cells
Experimental: (§4) 3 μg of BAX/BAK interfering plasmid was transfected into MCF-7 cells by using calcium phosphate coprecipitation method, 24 hours later, the cells were collected. The expressions after the BAX and BAK proteins interfered with RNA was detected by Western, and the cell groups without plasmid transfection were treated similarly and were set as the control group. The transfected cells were inoculated in a 96-well plate (1×10^5 cells/well), the control experiment of the cell group without plasmid transfection was carried out in parallel. The compound 1 to be detected was added thereinto according to the concentration gradient designed before the experiment. 48 hours later, the cellular vitality was detected by MTT. The experimental results were shown in FIG. 9, Gossypol as nonspecific BH3 analogue was treated in parallel.
(§5) Other 24 compounds were also detected by the same experimental method as described above, the differences of IC50 values between the transfected cells and the without plasmid transfection cells were compared.

[3] = test system: MCF-7 cells transfected with BAX/BAK interfering plasmid; experiment: Cytotoxicity by MTT, cells transfected with BAX/BAK interfering plasmid; assay type: cell-based; settings: Homo sapiens, MCF7; MCF-7 with BAX/BAK interfering plasmid, MTT, 48 hours
Experimental: as §4, §5

Bcl-2 = experiment: Western blotting, semiquantitative analysis of Bcl-2 protein bands; assay type: cell-based; settings: control = 1, tumor cells
Experimental: (§6) The interest protein was detected by the corresponding antibody. The expression of the interest protein in the cells was detected by horseradish peroxidase-labeled secondary antibodies in combination with ECL coloration method. […] The concentration of the protein bands in the Western images were carried out semiquantitative analysis and normalization treatment with KODAK Gel Logic 1500 imaging system software.

Mcl-1 = experiment: Western blotting, semiquantitative analysis of Mcl-1 protein bands; assay type: cell-based; settings: control = 1, tumor cells
Experimental: as §6

Bcl-2 protein, sequence (P10415 whole entry, species assumed): as the sequence (P10415 whole entry) above

With `CC(C)c1ccc(Oc2ccc3c4c(cccc24)C2=NC(=O)C(NCCCc4ccccc4)=C23)cc1` [Compound 12, 3-(4-Isopropyl-phenoxy)-9-(3-phenyl-propylamino)-acenaphtho[1,2-b]pyrrol-8-one] the IC50 (Bcl-2 protein) was 9 nM, the IC50 (His-tagged Mcl-1 protein) was 15 nM and the “Doses (concentration at which the compound interfered with the interaction between Bcl-2 and Bax)” value [1] was 0.2 µM. The “Time (time period after which the interaction between Bcl-2 and Bax was interfered)” value [1] was 1 h, the “Doses (concentration at which the compound drove the BAX to shift towards the chondriosome)” value [2] was 0.3 µM and the “Time (time period after which BAX shifted towards the chondriosome)” value [2] was 2 h. For the same molecule, the IC50 (MCF-7 cells) was 2900 nM, the IC50 [3] was over 50000 nM and the “concentration of the protein bands (semiquantitative, normalized), Bcl-2” value (Bcl-2; 6 h) was 0.99. The “concentration of the protein bands (semiquantitative, normalized), Bcl-2” value (Bcl-2; 12 h) was 0.99, the “concentration of the protein bands (semiquantitative, normalized), Bcl-2” value (Bcl-2; 18 h) was 0.45 and the “concentration of the protein bands (semiquantitative, normalized), Bcl-2” value (Bcl-2; 24 h) was 0.16. The “concentration of the protein bands (semiquantitative, normalized), Mcl-1” value (Mcl-1; 2 h) was 0.66, the “concentration of the protein bands (semiquantitative, normalized), Mcl-1” value (Mcl-1; 6 h) was 0.28 and the melting point was 275 to 276 °C.
With `O=C1N=C2C(=C1NCCCc1ccccc1)c1cccc3cccc2c13` [Compound 3, 9-(3-Phenyl-propylamino)-acenaphtho[1,2-b]pyrrol-8-one] the IC50 (Bcl-2 protein) was 8 nM, the IC50 (His-tagged Mcl-1 protein) was 14 nM and the “Doses (concentration at which the compound interfered with the interaction between Bcl-2 and Bax)” value [1] was 0.2 µM. For the same molecule, the “Time (time period after which the interaction between Bcl-2 and Bax was interfered)” value [1] was 2 h, the “Doses (concentration at which the compound drove the BAX to shift towards the chondriosome)” value [2] was 0.2 µM and the “Time (time period after which BAX shifted towards the chondriosome)” value [2] was 2 h. The IC50 (MCF-7 cells) was 3000 nM, the IC50 [3] was over 50000 nM and the “concentration of the protein bands (semiquantitative, normalized), Bcl-2” value (Bcl-2; 6 h) was 0.99. For the same molecule, the “concentration of the protein bands (semiquantitative, normalized), Bcl-2” value (Bcl-2; 12 h) was 0.99, the “concentration of the protein bands (semiquantitative, normalized), Bcl-2” value (Bcl-2; 18 h) was 0.49 and the “concentration of the protein bands (semiquantitative, normalized), Bcl-2” value (Bcl-2; 24 h) was 0.18. For the same molecule, the “concentration of the protein bands (semiquantitative, normalized), Mcl-1” value (Mcl-1; 2 h) was 0.65, the “concentration of the protein bands (semiquantitative, normalized), Mcl-1” value (Mcl-1; 6 h) was 0.29 and the melting point was 252 to 253 °C.
With `O=C1N=C2C(=C1NCCCc1ccccc1)c1ccc(Sc3ccc(Br)cc3)c3cccc2c13` [Compound 8, 3-(4-Bromo-phenylsulfanyl)-9-(3-phenyl-propylamino)-acenaphtho[1,2-b]pyrrol-8-one] the IC50 (Bcl-2 protein) was 6 nM, the IC50 (His-tagged Mcl-1 protein) was 4 nM and the “Doses (concentration at which the compound interfered with the interaction between Bcl-2 and Bax)” value [1] was 0.1 µM. For the same molecule, the “Time (time period after which the interaction between Bcl-2 and Bax was interfered)” value [1] was 1 h, the “Doses (concentration at which the compound drove the BAX to shift towards the chondriosome)” value [2] was 0.1 µM and the “Time (time period after which BAX shifted towards the chondriosome)” value [2] was 1 h. For the same molecule, the IC50 (MCF-7 cells) was 1000 nM, the IC50 [3] was over 50000 nM and the “concentration of the protein bands (semiquantitative, normalized), Bcl-2” value (Bcl-2; 6 h) was 0.99. The “concentration of the protein bands (semiquantitative, normalized), Bcl-2” value (Bcl-2; 12 h) was 0.99, the “concentration of the protein bands (semiquantitative, normalized), Bcl-2” value (Bcl-2; 18 h) was 0.42 and the “concentration of the protein bands (semiquantitative, normalized), Bcl-2” value (Bcl-2; 24 h) was 0.10. For the same molecule, the “concentration of the protein bands (semiquantitative, normalized), Mcl-1” value (Mcl-1; 2 h) was 0.52, the “concentration of the protein bands (semiquantitative, normalized), Mcl-1” value (Mcl-1; 6 h) was 0.22 and the melting point was 272 to 273 °C.
For `O=C1N=C2C(=C1NCCCc1ccccc1)c1ccc(N3CCSCC3)c3cccc2c13` [Compound 10, 9-(3-Phenyl-propylamino)-3-thiomorpholin-4-yl-acenaphtho[1,2-b]pyrrol-8-one], the IC50 (Bcl-2 protein) was 17 nM, the IC50 (His-tagged Mcl-1 protein) was 5 nM and the “Doses (concentration at which the compound interfered with the interaction between Bcl-2 and Bax)” value [1] was 0.1 µM. The “Time (time period after which the interaction between Bcl-2 and Bax was interfered)” value [1] was 2 h, the “Doses (concentration at which the compound drove the BAX to shift towards the chondriosome)” value [2] was 0.2 µM and the “Time (time period after which BAX shifted towards the chondriosome)” value [2] was 1 h. For the same molecule, the IC50 (MCF-7 cells) was 500 nM, the IC50 [3] was over 50000 nM and the “concentration of the protein bands (semiquantitative, normalized), Bcl-2” value (Bcl-2; 6 h) was 0.99. The “concentration of the protein bands (semiquantitative, normalized), Bcl-2” value (Bcl-2; 12 h) was 0.99, the “concentration of the protein bands (semiquantitative, normalized), Bcl-2” value (Bcl-2; 18 h) was 0.45 and the “concentration of the protein bands (semiquantitative, normalized), Bcl-2” value (Bcl-2; 24 h) was 0.12. The “concentration of the protein bands (semiquantitative, normalized), Mcl-1” value (Mcl-1; 2 h) was 0.53, the “concentration of the protein bands (semiquantitative, normalized), Mcl-1” value (Mcl-1; 6 h) was 0.21 and the melting point was 265 to 266 °C.
